Assays:
Wistar rats = test: Novel Object Recognition Task (subchronic study); format: in vivo, rat; conditions: p.o.; for Minimum effective dose: subchronic 7 days, Wistar rats
Source text: Briefly, Wistar rats were acclimatized to the CNS-Laboratory-animal holding room for at least 7 days prior to the randomization, under standard housing conditions. Animals were handled and familiarized with the injection procedures during this period. Two days before the experimentation (acquisition trial, T1), rats were randomized in different treatment-groups based on their body weights namely, vehicle (Tween 80 (1%, v/v), Vitamin E TPGS (Speziol®, 10%, v/v) q.s. 100% v/v in milli-Q water, 2 ml/kg, p.o.), scopolamine (1 mg/kg, i.p.) and test compounds (Compound 1: ranging from 0.005 to 0.05 mg/kg, p.o. and compound A:ranging from 0.05 to 0.5 mg/kg, p.o.)
Vehicle or test compounds (Compounds 1 and A) were administered in a single-dose, subchronically for 7 days, and 1 h before the acquisition trial on day-8 in respective treatment-groups. In order to induce cognitive deficits, scopolamine (1 mg/kg) was injected 25 min before the acquisition trial (T1). Acquisition (T1) and Retention (T2) trials were separated by an intertrial interval of 30 min. In the first trial (acquisition trial, T1), the rats were subjected to arena with two identical objects for a period of 5 min and exploration time towards individual object was measured. In retention trial, one of the identical object was replaced with novel object.
In the time-delay induced amnesia paradigm, vehicle or test compounds (Compounds 1 and A) were administered once-daily for 7 days, and 1 h before the acquisition trial (T1) on day-8 in the respective treatment-groups. After this, a second, retention (T2) trial, was conducted on day-9. A 24 h inter-trial interval served to induce spontaneous decay of memory and resultant amnesia in this paradigm.
In the second trial (retention trial, T2), one of the objects presented in T1 was replaced by a novel object, and the rats were left to explore in the arena for 5 min. The time spent exploring the familiar (F) and the novel object (N) was recorded separately. All the animals underwent habituation session of 10 min duration 24 h prior to acquisition trial to get them acclimatized to the test arena. Both the trials (acquisition and retention) were of 5 min duration. The NOR task was performed in the square-open-field boxes (40 cm long×40 cm wide×40 cm high) made up of non-reflective PVC sheets with black surrounding walls and light gray floor. Colored plastic and glass bottles of different size, shapes and texture, served as object of exploration.
Object exploration was measured as the ‘time spent by the animal’ directing its nose at a distance 2 cm to the object or touching and exploring it. Time spent climbing on the object was not accounted as object exploration. In order to avoid the presence of olfactory trails, the test boxes and objects were always thoroughly cleaned between trials of individual animals.
Mean and standard error of the mean (S.E.M.) was calculated for the exploration time of each identical objects in T1, novel and familiar objects in T2 and discrimination index across the treatment groups. Exploration time within groups was compared with Student's paired t-test. Discrimination index was compared between groups by One-way ANOVA with Dunnett's post hoc test in comparison to the scopolamine-treated group or vehicle-treated group as per the paradigm. Discrimination index was compared between groups by unpaired t-test in comparison to the vehicle-treated group. p<0.05 was considered as significant. All statistical comparisons were performed using GraphPad Prism version 5.00 for Windows, GraphPad Software, San Diego Calif. USA.
The discrimination index (DI) was calculated based on explorations in T2 trial, using the formula.
Discrimination Index equals (time spent investigating novel object−time spent investigating familiar object)/(time spent investigating novel object+time spent investigating familiar object). […] All the experimental recordings were carried out by manual observation of animals by trained scientists. […]

Sprague Dawley rats = test: Social Recognition Task (subchronic study); format: in vivo, rat; conditions: p.o.; for Minimum effective dose: subchronic 7 days, Sprague Dawley rats
Source text: Briefly, Sprague Dawley rats were acclimatized to the CNS-Laboratory-animal holding room for at least 7 days prior to the randomization, under standard housing conditions. The animals were handled and familiarized with the injection procedures during this period. Two days before the experimentation (social interaction trial, SIT1), the rats were randomized in different treatment-groups based on their body weights namely, vehicle (Tween 80 (1%, v/v), Vitamin E TPGS (Speziol®, 10%, v/v) q.s. 100% v/v in milli-Q water; 2 ml/kg, p.o.), scopolamine (0.5 mg/kg, i.p.) and test compound (Compound 1:ranging from 0.05 to 0.50 mg/kg, p.o.).
Seven days before experiment, the vehicle or the test compound was administered to the adult rats once-daily and 1 h before the SIT1 on day-8 in respective treatment-groups. Scopolamine or vehicle was administered 20 min prior to the first social interaction (acquisition, SIT1) trial; scopolamine administration served to induced amnesia. After this treatment, the animals were subjected to the first social interaction (acquisition, SIT1) trial, which was followed by a second (retention, SIT2) trial, 30 min later.
In the case of time-delay induced amnesia paradigm, the vehicle or the test compounds (Compound 1) were administered to the adult rats once-daily for 7 days and 1 h before the SIT1 on day-8, in respective treatment-groups. After this treatment, the animals were subjected to a second (retention, SIT2) trial on day-9. The 24 h inter-trial interval served to induce spontaneous decay of memory and resultant amnesia.
Both the trials (acquisition and retention) were of 5 min duration. The social recognition task was performed in the home-cages made up of transparent polycarbonate. Juvenile rats of 3-4 weeks of age served as subjects for exploration to the adult rats. Adult rats were habituated to the home-cage (without juvenile) for 5 min just before SIT1.
Subject exploration (towards juvenile) was measured as the ‘time spent by the adult animal’ exploring the juvenile rat socially viz. sniffing, following, climbing over or going under or aggression. In order to avoid the confounding olfactory trails, the home-cage was individualized for each adult rat. During the second trial (retention trial, SIT2), adult rats were re-exposed to the same juvenile rat previously introduced earlier in the SIT1. The time of exploration in seconds was recorded for both sessions (SIT1 and SIT2).
Mean and standard error of mean (S.E.M) were determined for the exploration time of each social recognition trial (SIT1, SIT2) and recognition index across the treatment-groups. […]
The recognition index (RI) was calculated using the formula: Recognition index equals(time spent investigating juvenile rat in SIT2/time spent investigating juvenile rat in SIT1). […]

[1] = Time-delay induced amnesia (24 h)

Structure (SMILES): CCC(=O)c1c(-c2ccc(S(N)(=O)=O)cc2)c(C)c(-c2ccc(Cl)cc2)n1C [Compound A, 4-(5-(4-chlorophenyl)-1,4-dimethyl-2-propionyl-1H-pyrrol-3-yl)benzenesulfonamide, reference compound]
- Minimum effective dose (Wistar rats; Scopolamine induced amnesia): >0.5 mg/kg
- Minimum effective dose (Wistar rats; [1]): 0.15 mg/kg

Structure (SMILES): Cc1c(-c2ccc(S(N)(=O)=O)cc2)c(C(=O)CC2CC2)n(C)c1-c1ccc(Cl)cc1 [Compound 1, 4-(5-(4-chlorophenyl)-2-(2-cyclopropylacetyl)-1,4-dimethyl-1H-pyrrol-3-yl)benzenesulfonamide]
- discrimination index as compared to vehicle-treated group (Wistar rats; 24 h time delay-induced amnesia, subchronic (7 day) 0.05 mg/Kg, FIG. 1A): significantly increased
- Minimum effective dose (Wistar rats; Scopolamine induced amnesia): 0.015 mg/kg
- discrimination index as compared to scopolamine treated group (Wistar rats; Scopolamine-induced amnesia, subchronic (7 day) 0.05 mg/Kg, FIG. 1B): significantly increased
- Minimum effective dose (Wistar rats; [1]): 0.015 mg/kg
- recognition index (RI) as compared to vehicle-treated group (Sprague Dawley rats; 24 h time delay-induced amnesia, subchronic (7 day) 0.05 mg/Kg, FIG. 2A): significantly decreased
- Minimum effective dose (Sprague Dawley rats; Scopolamine induced amnesia): 0.015 mg/kg
- recognition index (RI) as compared to scopolamine treated group (Sprague Dawley rats; Scopolamine-induced amnesia, subchronic (7 day) 0.05 mg/Kg, FIG. 2B): significantly decreased
- Minimum effective dose (Sprague Dawley rats; [1]): 0.05 mg/kg

From US9447037B2, “4-(5-(4-chlorophenyl)-2-(2-cyclopropylacetyl)-1,4-dimethyl-1H-pyrrol-3-yl)benzenesulfonamide as alpha 7 nAChR modulator” (Lupin Limited, priority 2013, dated 2016)
